*1 amine or outer side, *2 acyl side, *3 side chain or, on linkers, in order; H or OH if unused. Where a SMILES comes first, the peptide text is derived from it. Bridges are numbered along the chain shown (N, C = ends). [ ]: non-standard residue; d: D form. Phe(3,4,5-F3) = N[C@@H](Cc1cc(F)c(F)c(F)c1)C(=O)O; Phe(4-CH2NH2) = NCc1ccc(C[C@H](N)C(=O)O)cc1; Morpholine(3S-CO) = O=C(O)[C@@H]1COCCN1; Pro(4R-NH2) = N[C@H]1CN[C@H](C(=O)O)C1; X4 = CC1(C)CC[C@H](C(=O)[*:2])N1[*:1]; d(cisHyp) = O=C(O)[C@H]1C[C@@H](O)CN1; Bta = N[C@@H](Cc1csc2ccccc12)C(=O)O; Hyp = O=C(O)[C@@H]1C[C@@H](O)CN1; NMeF = CN[C@@H](Cc1ccccc1)C(=O)O; Pip(4-aza) = O=C(O)[C@@H]1CNCCN1; X1 = O=C([C@H]1COCCN1[*:1])[*:2]; hPhe = N[C@@H](CCc1ccccc1)C(=O)O; αMeF = C[C@](N)(Cc1ccccc1)C(=O)O; NMeNle = CCCC[C@H](NC)C(=O)O; Tle = CC(C)(C)[C@H](N)C(=O)O; Pip = O=C(O)[C@@H]1CCCCN1; dPip = O=C(O)[C@H]1CCCCN1; NMeA = CN[C@@H](C)C(=O)O; dNMeA = CN[C@H](C)C(=O)O; Aze = O=C(O)[C@@H]1CCN1; Sar = CNCC(=O)O
What follows are compounds tested against T1, Human PD-L1/PD-1 (Homo sapiens, UniProt Q9NZQ7) (assay: HTRF Human PD-L1/PD-1 binding assay (PD-1-Ig/PD-L1-His)). Conditions: PD-L1-His 10 nM, PD-1-Ig 20 nM; class symbol; read-out: HTRF Human PD-L1/PD-1 Binding Assay IC50 Range.
T1 construct: TVMV protease cleavage site (C); made in house; host or cells: HEK293T cells
Outline: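 Step 1: compound with PD-L1-His (10 nM final), 15 min. Step 2: PD-1-Ig (20 nM final), 15 min. Step 3: Eu-cryptate anti-Ig (1 nM) plus APC anti-His (20 nM), 30 min equilibration. Signal taken as 665 nm/620 nm ratio.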

T1 sequence (Q9NZQ7 with tags, fused parts or gaps): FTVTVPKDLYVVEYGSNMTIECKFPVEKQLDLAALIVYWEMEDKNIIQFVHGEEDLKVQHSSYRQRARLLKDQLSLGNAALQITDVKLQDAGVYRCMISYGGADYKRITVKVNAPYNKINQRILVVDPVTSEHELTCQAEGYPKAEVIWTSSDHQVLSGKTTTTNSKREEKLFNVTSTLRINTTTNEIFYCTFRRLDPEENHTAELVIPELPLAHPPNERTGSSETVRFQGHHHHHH

For `CCCC[C@H]1C(=O)N(C)[C@@H](CCCC)C(=O)N[C@@H](C)C(=O)N[C@H](C(=O)NCC(N)=O)CSCC(=O)N[C@@H](Cc2ccc(O)cc2)C(=O)N(C)[C@@H](C)C(=O)N[C@@H](CC(N)=O)C(=O)N2CCC[C@H]2C(=O)N[C@@H](Cc2cnc[nH]2)C(=O)N[C@@H](CCC(N)=O)C(=O)N2C[C@H](O)C[C@H]2C(=O)N[C@@H](Cc2c[nH]c3ccccc23)C(=O)N[C@@H](CO)C(=O)N[C@@H](Cc2csc3ccccc23)C(=O)N1C` [Example 1542] ({CH2CO}-Y[NMeA]NPHQ[Hyp]WS[Bta][NMeNle][NMeNle]ACG-NH2; thioether N-14), which IC50 is on record?
The IC50 was 0.01 to 0.0999 µM.

For `CCCC[C@H]1C(=O)N(C)CC(=O)N[C@@H](CC(=O)O)C(=O)N[C@@H](C(C)(C)C)C(=O)N(C)[C@@H](Cc2ccccc2)C(=O)N[C@@H](Cc2ccc(O)cc2)C(=O)N(C)CC(=O)N[C@@H](Cc2c[nH]c3ccccc23)C(=O)N[C@@H](Cc2ccc(O)cc2)C(=O)N[C@@H](CC(C)C)C(=O)N[C@H](C(=O)NCC(N)=O)CSCC(=O)N[C@@H](Cc2ccccc2)C(=O)N(C)[C@@H](Cc2ccccc2)C(=O)N1C` [Example 3211] ({CH2CO}-F[NMeF][NMeNle][Sar]D[Tle][NMeF]Y[Sar]WYLCG-NH2; thioether N-13), which IC50 is on record?
Its IC50 is 0.01 to 0.0999 µM.

How did the IC50 turn out when `CCCC[C@H]1C(=O)N(C)CC(=O)N[C@@H](CC(N)=O)C(=O)N[C@@H](C(C)C)C(=O)N(C)[C@@H](Cc2ccccc2)C(=O)N[C@@H](CC(=O)O)C(=O)N(C)CC(=O)N[C@@H](Cc2c[nH]c3ccccc23)C(=O)N[C@@H](Cc2ccc(CN)cc2)C(=O)N[C@@H](CC(C)C)C(=O)N[C@H](C(=O)NCC(N)=O)CSCC(=O)N[C@@H](Cc2ccccc2)C(=O)N(C)[C@@H](Cc2ccccc2)C(=O)N1C` [Example 3212] ({CH2CO}-F[NMeF][NMeNle][Sar]NV[NMeF]D[Sar]W[Phe(4-CH2NH2)]LCG-NH2; thioether N-13) was run?
The IC50 was 0.01 to 0.0999 µM.

With `CCCC[C@H]1C(=O)N2C[C@H](O)C[C@@H]2C(=O)N2C[C@H](N)C[C@H]2C(=O)N[C@@H](C(C)C)C(=O)N(C)[C@@H](Cc2ccccc2)C(=O)N[C@@H](CCC(=O)O)C(=O)N2CCOC[C@@H]2C(=O)N[C@@H](Cc2c[nH]c3ccccc23)C(=O)N[C@@H](Cc2ccc(O)cc2)C(=O)N[C@@H](CC(C)C)C(=O)N[C@H](C(=O)NCC(N)=O)CSCC(=O)N[C@@H](Cc2cc(F)c(F)c(F)c2)C(=O)N(C)[C@@H](Cc2ccccc2)C(=O)N1C` [Example 3216] ({CH2CO}-[Phe(3,4,5-F3)][NMeF][NMeNle][d(cisHyp)][Pro(4R-NH2)]V[NMeF]E[X1]WYLCG-NH2; thioether N-13) as the compound, how does the IC50 read?
The IC50 was 0.01 to 0.0999 µM.

For `CCCC[C@H]1C(=O)N2CCC[C@@H]2C(=O)N2CCCC[C@H]2C(=O)N[C@@H](C(C)C)C(=O)N(C)[C@@H](Cc2ccccc2)C(=O)N[C@@H](Cc2ccc(O)cc2)C(=O)N2CCCC[C@@H]2C(=O)N[C@@H](Cc2c[nH]c3ccccc23)C(=O)N[C@@H](Cc2ccc(O)cc2)C(=O)N[C@@H](CC(C)C)C(=O)N[C@H](C(=O)NCC(N)=O)CSCC(=O)N[C@@H](Cc2cc(F)c(F)c(F)c2)C(=O)N(C)[C@@H](Cc2ccccc2)C(=O)N1C` [Example 3217] ({CH2CO}-[Phe(3,4,5-F3)][NMeF][NMeNle][dP][Pip]V[NMeF]Y[dPip]WYLCG-NH2; thioether N-13), which IC50 is on record?
Its IC50 is 0.01 to 0.0999 µM.

How did the IC50 turn out when `CCCC[C@H]1C(=O)N2CCC[C@@H]2C(=O)N2CCNC[C@H]2C(=O)N[C@@H](C(C)C)C(=O)N(C)[C@@H](Cc2ccccc2)C(=O)N[C@@H](Cc2ccc(O)cc2)C(=O)N2CCCC[C@@H]2C(=O)N[C@@H](Cc2c[nH]c3ccccc23)C(=O)N[C@@H](Cc2ccc(O)cc2)C(=O)N[C@@H](CC(C)C)C(=O)N[C@H](C(=O)NCC(N)=O)CSCC(=O)N[C@@H](Cc2cc(F)c(F)c(F)c2)C(=O)N(C)[C@@H](Cc2ccccc2)C(=O)N1C` [Example 3218] ({CH2CO}-[Phe(3,4,5-F3)][NMeF][NMeNle][dP][Pip(4-aza)]V[NMeF]Y[dPip]WYLCG-NH2; thioether N-13) was run?
The IC50 was 0.001 to 0.0099 µM.

For `CCCC[C@H]1C(=O)N2CCC[C@@H]2C(=O)N2CCOC[C@H]2C(=O)N[C@@H](C(C)C)C(=O)N(C)[C@@H](Cc2ccccc2)C(=O)N[C@@H](Cc2ccc(O)cc2)C(=O)N2CCCC[C@@H]2C(=O)N[C@@H](Cc2c[nH]c3ccccc23)C(=O)N[C@@H](Cc2ccc(O)cc2)C(=O)N[C@@H](CC(C)C)C(=O)N[C@H](C(=O)NCC(N)=O)CSCC(=O)N[C@@H](Cc2cc(F)c(F)c(F)c2)C(=O)N(C)[C@@H](Cc2ccccc2)C(=O)N1C` [Example 3219] ({CH2CO}-[Phe(3,4,5-F3)][NMeF][NMeNle][dP][Morpholine(3S-CO)]V[NMeF]Y[dPip]WYLCG-NH2; thioether N-13), which IC50 is on record?
The IC50 was 0.01 to 0.0999 µM.

With `CCCC[C@H]1C(=O)N2CCC[C@@H]2C(=O)N[C@@H](CC(=O)O)C(=O)N[C@@H](C(C)C)C(=O)N[C@@](C)(Cc2ccccc2)C(=O)N[C@@H](Cc2ccc(O)cc2)C(=O)N2CCCC[C@@H]2C(=O)N[C@@H](Cc2c[nH]c3ccccc23)C(=O)N[C@@H](Cc2ccc(O)cc2)C(=O)N[C@@H](CC(C)C)C(=O)N[C@H](C(=O)NCC(N)=O)CSCC(=O)N[C@@H](Cc2ccccc2)C(=O)N(C)[C@@H](Cc2ccccc2)C(=O)N1C` [Example 3220] ({CH2CO}-F[NMeF][NMeNle][dP]DV[αMeF]Y[dPip]WYLCG-NH2; thioether N-13) as the compound, how does the IC50 read?
Its IC50 is 0.01 to 0.0999 µM.

How did the IC50 turn out when `CCCC[C@H]1C(=O)N2CCC[C@@H]2C(=O)N2CC[C@H]2C(=O)N[C@@H](C(C)C)C(=O)N(C)[C@@H](Cc2ccccc2)C(=O)N[C@@H](Cc2ccc(O)cc2)C(=O)N2CCCC[C@@H]2C(=O)N[C@@H](Cc2c[nH]c3ccccc23)C(=O)N[C@@H](Cc2ccc(O)cc2)C(=O)N[C@@H](CC(C)C)C(=O)N[C@H](C(=O)NCC(N)=O)CSCC(=O)N[C@@H](Cc2cc(F)c(F)c(F)c2)C(=O)N(C)[C@@H](Cc2ccccc2)C(=O)N1C` [Example 3221] ({CH2CO}-[Phe(3,4,5-F3)][NMeF][NMeNle][dP][Aze]V[NMeF]Y[dPip]WYLCG-NH2; thioether N-13) was run?
Its IC50 is 0.01 to 0.0999 µM.

How did the IC50 turn out when `CCCC[C@H]1C(=O)N2CCC[C@@H]2C(=O)N[C@@H](CC(=O)O)C(=O)N[C@@H](C(C)(C)C)C(=O)N(C)[C@@H](Cc2ccccc2)C(=O)N[C@@H](Cc2ccc(O)cc2)C(=O)N2CCOC[C@@H]2C(=O)N[C@@H](Cc2c[nH]c3ccccc23)C(=O)N[C@@H](Cc2ccc(O)cc2)C(=O)N[C@@H](CC(C)C)C(=O)N[C@H](C(=O)NCC(N)=O)CSCC(=O)N[C@@H](Cc2cc(F)c(F)c(F)c2)C(=O)N(C)[C@@H](Cc2ccccc2)C(=O)N1C` [Example 3223] ({CH2CO}-[Phe(3,4,5-F3)][NMeF][NMeNle][dP]D[Tle][NMeF]Y[X1]WYLCG-NH2; thioether N-13) was run?
Its IC50 is 0.001 to 0.0099 µM.

How did the IC50 turn out when `CCCC[C@H]1C(=O)N(C)[C@H](C)C(=O)N[C@@H](CC(=O)O)C(=O)N[C@@H](C(C)C)C(=O)N(C)[C@@H](Cc2ccccc2)C(=O)N[C@@H](Cc2ccc(O)cc2)C(=O)N(C)[C@H](C)C(=O)N[C@@H](Cc2c[nH]c3ccccc23)C(=O)N[C@@H](Cc2ccc(O)cc2)C(=O)N[C@@H](CC(C)C)C(=O)N[C@H](C(=O)NCC(N)=O)CSCC(=O)N[C@@H](Cc2cc(F)c(F)c(F)c2)C(=O)N(C)[C@@H](Cc2ccccc2)C(=O)N1C` [Example 3224] ({CH2CO}-[Phe(3,4,5-F3)][NMeF][NMeNle][dNMeA]DV[NMeF]Y[dNMeA]WYLCG-NH2; thioether N-13) was run?
Its IC50 is 0.01 to 0.0999 µM.

Which IC50 does the source give for `CCCC[C@H]1C(=O)N(C)CC(=O)N[C@@H](CC(=O)O)C(=O)N[C@@H]([C@@H](C)O)C(=O)N(C)[C@@H](Cc2ccccc2)C(=O)N[C@@H](Cc2ccc(O)cc2)C(=O)N(C)CC(=O)N[C@@H](Cc2c[nH]c3ccccc23)C(=O)N[C@@H](Cc2ccc(O)cc2)C(=O)N[C@@H](CC(C)C)C(=O)N[C@H](C(=O)NCC(N)=O)CSCC(=O)N[C@@H](Cc2ccccc2)C(=O)N(C)[C@@H](Cc2ccccc2)C(=O)N1C` [Example 3225] ({CH2CO}-F[NMeF][NMeNle][Sar]DT[NMeF]Y[Sar]WYLCG-NH2; thioether N-13) here?
The IC50 was 0.001 to 0.0099 µM.

Same assay, conditions: PD-L1-His 10 nM, PD-1-Ig 20 nM; read-out: HTRF Human PD-L1/PD-1 Binding Assay IC50

`CCCC[C@H]1C(=O)N(C)CC(=O)N[C@@H](CC(=O)O)C(=O)N[C@@H](C(C)C)C(=O)N(C)[C@@H](Cc2ccccc2)C(=O)N[C@@H](Cc2ccc(O)cc2)C(=O)N2[C@H](CCC2(C)C)C(=O)N[C@@H](Cc2c[nH]c3ccccc23)C(=O)N[C@@H](Cc2ccc(O)cc2)C(=O)N[C@@H](CC(C)C)C(=O)N[C@H](C(=O)NCC(N)=O)CSCC(=O)N[C@@H](Cc2ccccc2)C(=O)N(C)[C@@H](Cc2ccccc2)C(=O)N1C` [Example 3210] ({CH2CO}-F[NMeF][NMeNle][Sar]DV[NMeF]Y[X4]WYLCG-NH2; thioether N-13) was tested. Which IC50 did it give?
The IC50 was 1 µM.

`CCCC[C@H]1C(=O)N2CCC[C@@H]2C(=O)N[C@@H](CC(=O)O)C(=O)N[C@@H](C(C)(C)C)C(=O)N(C)[C@@H](Cc2ccccc2)C(=O)N[C@@H](Cc2ccc(O)cc2)C(=O)N2CCCC[C@@H]2C(=O)N[C@@H](Cc2c[nH]c3ccccc23)C(=O)N[C@@H](Cc2ccc(O)cc2)C(=O)N[C@@H](CC(C)C)C(=O)N[C@H](C(=O)NCC(N)=O)CSCC(=O)N[C@@H](Cc2cc(F)c(F)c(F)c2)C(=O)N(C)[C@@H](Cc2ccccc2)C(=O)N1C` [Example 3222] ({CH2CO}-[Phe(3,4,5-F3)][NMeF][NMeNle][dP]D[Tle][NMeF]Y[dPip]WYLCG-NH2; thioether N-13) was tested. Which IC50 did it give?
The IC50 was 0.0045 µM.

How did the IC50 turn out when `CCCC[C@H]1C(=O)N(C)CC(=O)N[C@@H](CC(=O)O)C(=O)N[C@@H](CCc2ccccc2)C(=O)N(C)[C@@H](Cc2ccccc2)C(=O)N[C@@H](Cc2ccc(O)cc2)C(=O)N(C)CC(=O)N[C@@H](Cc2c[nH]c3ccccc23)C(=O)N[C@@H](Cc2ccc(O)cc2)C(=O)N[C@@H](CC(C)C)C(=O)N[C@H](C(=O)NCC(N)=O)CSCC(=O)N[C@@H](Cc2ccccc2)C(=O)N(C)[C@@H](Cc2ccccc2)C(=O)N1C` [Example 3226] ({CH2CO}-F[NMeF][NMeNle][Sar]D[hPhe][NMeF]Y[Sar]WYLCG-NH2; thioether N-13) was run?
Its IC50 is 1.86 µM.

From patent publication US10538555B2, “Macrocyclic inhibitors of the PD-1/PD-L1 and CD80(B7-1)/PD-L1 protein/protein interactions” (BRISTOL-MYERS SQUIBB COMPANY, priority 2014, dated 2020)
